Measurements as given in patent US20110263564A1, “PYRIDINE, BICYCLIC PYRIDINE AND RELATED ANALOGS AS SIRTUIN MODULATORS” (Sirtris Pharmaceuticals, Inc., priority 2008, published 2011).

Target: T1, SIRT1 (Homo sapiens, UniProt Q96EB6)
T1 sequence (Q96EB6 1-747): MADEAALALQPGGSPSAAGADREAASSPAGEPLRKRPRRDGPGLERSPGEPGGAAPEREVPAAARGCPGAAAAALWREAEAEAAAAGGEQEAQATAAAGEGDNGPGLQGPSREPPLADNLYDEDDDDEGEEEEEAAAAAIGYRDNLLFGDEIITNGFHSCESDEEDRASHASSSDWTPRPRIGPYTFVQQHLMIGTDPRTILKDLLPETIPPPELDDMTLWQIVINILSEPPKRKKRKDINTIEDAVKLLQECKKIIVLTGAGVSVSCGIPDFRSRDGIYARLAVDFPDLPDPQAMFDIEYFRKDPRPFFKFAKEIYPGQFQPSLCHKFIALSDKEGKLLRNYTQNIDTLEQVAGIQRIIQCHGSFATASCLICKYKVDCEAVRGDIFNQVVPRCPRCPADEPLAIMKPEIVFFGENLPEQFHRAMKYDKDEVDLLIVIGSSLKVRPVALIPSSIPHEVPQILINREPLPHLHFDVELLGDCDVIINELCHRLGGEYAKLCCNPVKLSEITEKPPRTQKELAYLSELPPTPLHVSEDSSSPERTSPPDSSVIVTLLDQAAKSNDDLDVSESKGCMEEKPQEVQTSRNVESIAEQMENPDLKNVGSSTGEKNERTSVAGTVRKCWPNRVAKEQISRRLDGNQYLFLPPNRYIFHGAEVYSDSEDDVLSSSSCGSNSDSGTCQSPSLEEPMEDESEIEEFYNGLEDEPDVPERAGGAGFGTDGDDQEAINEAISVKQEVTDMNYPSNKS
Experiment: Mass spectrometry based assay of SIRT1 activity (deacetylation of a p53-based acetylated peptide)
Assay type: biochemical
Details: 10 nM SIRT1, 0.5 μM peptide substrate, 120 μM βNAD+, 25 minutes at 25° C.; for Emax: read-out: % FOLD ACT. (percent maximum fold activation)
Excerpt: A mass spectrometry based assay was used to identify modulators of SIRT1 activity. The mass spectrometry based assay utilizes a peptide having 20 amino acid residues as follows: Ac-EE-K(biotin)-GQSTSSHSK(Ac)NleSTEG-K(5TMR)-EE-NH2 (SEQ ID NO: 1) wherein K(Ac) is an acetylated lysine residue and Nle is a norleucine. The peptide is labeled with the fluorophore 5TMR (excitation 540 nm/emission 580 nm) at the C-terminus. The sequence of the peptide substrate is based on p53 with several modifications. In addition, the methionine residue naturally present in the sequence was replaced with the norleucine because the methionine may be susceptible to oxidation during synthesis and purification.
The mass spectrometry assay is conducted as follows: 0.5 μM peptide substrate and 120 μM βNAD^+ is incubated with 10 nM SIRT1 for 25 minutes at 25° C. in a reaction buffer (50 mM Tris-acetate pH 8, 137 mM NaCl, 2.7 mM KCl, 1 mM MgCl2, 5 mM DTT, 0.05% BSA). Test compounds may be added to the reaction as described above. […] After the 25 minute incubation with SIRT1, 10 μL of 10% formic acid is added to stop the reaction. Reactions are sealed and frozen for later mass spec analysis. Determination of the mass of the substrate peptide allows for precise determination of the degree of acetylation (i.e. starting material) as compared to deacetylated peptide (product).
A control for inhibition of sirtuin activity is conducted by adding 1 μL of 500 mM nicotinamide as a negative control at the start of the reaction (e.g., permits determination of maximum sirtuin inhibition). A control for activation of sirtuin activity is conducted using 10 nM of sirtuin protein, with 1 μL of DMSO in place of compound, to determine the amount of deacetylation of the substrate at a given timepoint within the linear range of the assay. This timepoint is the same as that used for test compounds and, within the linear range, the endpoint represents a change in velocity.
For the above assay, SIRT1 protein was expressed and purified as follows. […] The protein was expressed by induction with 1 mM IPTG as an N-terminal His-tag fusion protein at 18° C. overnight and harvested at 30,000×g. Cells were lysed with lysozyme in lysis buffer (50 mM Tris-HCl, 2 mM Tris[2-carboxyethyl]phosphine (TCEP), 10 μM ZnCl2, 200 mM NaCl) and further treated with sonication for 10 min for complete lysis. The protein was purified over a Ni-NTA column (Amersham) and fractions containing pure protein were pooled, concentrated and run over a sizing column (Sephadex S200 26/60 global). The peak containing soluble protein was collected and run on an Ion-exchange column (MonoQ). Gradient elution (200 mM-500 mM NaCl) yielded pure protein. This protein was concentrated and dialyzed against dialysis buffer (20 mM Tris-HCl, 2 mM TCEP) overnight. The protein was aliquoted and frozen at −80° C. until further use.
Sirtuin modulating compounds that activated SIRT1 were identified using the assay described above and are shown below in Table 1 for compounds of Formula (III)). The EC1.5 values represent the concentration of test compounds that result in 150% activation of SIRT1. The EC1.5 values for the activating compounds in Table 1 are represented by A (EC1.5<10.0 μM), B (EC1.5 10-25 μM), C (EC1.5>25 μM). The percent maximum fold activation is represented by A (Fold activation>200%) or B (Fold Activation<200%); “NT” means not tested; “ND” mean not determinable.

| EC1.5 (concentration of test compound that results in 150% activation of SIRT1) | Emax [%] | SMILES |
| --- | --- | --- |
| C (EC1.5>25 μM) |  | Cc1cncc(-c2ccc3c(n2)C(NC(=O)c2cnccn2)CCC3)c1 (stereo not shown) [Compound 200, N-(2-(5-methylpyridin-3-yl)-5,6,7,8-tetrahydroquinolin-8-yl)pyrazine-2-carboxamide] |
| B (EC1.5 10-25 μM) | > 200 | O=C(NC1CCCc2ccc(-c3cccc(OC(F)(F)F)c3)nc21)c1cnccn1 (stereo not shown) [Compound 252] |
| C (EC1.5>25 μM) | < 200 | O=C(NC1CCCc2ccc(-c3cccc(C(F)(F)F)c3)nc21)c1cccnc1 (stereo not shown) [Compound 232] |
| C (EC1.5>25 μM) |  | O=C(NC1CCOc2ccc(-c3cccc(C(F)(F)F)c3)nc21)c1cnccn1 (stereo not shown) [Compound 224] |
| C (EC1.5>25 μM) |  | CS(=O)(=O)c1cccc(-c2ccc3c(n2)C(NC(=O)c2cnccn2)CCC3)c1 (stereo not shown) [Compound 250] |
| C (EC1.5>25 μM) |  | CC(C)c1ccccc1-c1ccc2c(n1)C(NC(=O)c1cnccn1)CCC2 (stereo not shown) [Compound 258] |
| A (EC1.5<10.0 μM) | > 200 | O=C(NC1CCCc2ccc(-c3cccc(C(F)(F)F)c3)nc21)c1cnccn1 (stereo not shown) [Compound 206, N-(2-(3-(trifluoromethyl)phenyl)-5,6,7,8-tetrahydroquinolin-8-yl)pyrazine-2-carboxamide] |
| C (EC1.5>25 μM) |  | O=C(NC1CCCc2ccc(-c3cccc(N4CCOCC4)c3)nc21)c1cnccn1 (stereo not shown) [Compound 261] |
| C (EC1.5>25 μM) |  | Cc1cc(-c2ccc3c(n2)C(NC(=O)c2cnccn2)CCC3)ccn1 (stereo not shown) [Compound 249] |
| B (EC1.5 10-25 μM) | < 200 | O=C(NC1CCCc2ccc(-c3cccc(C(F)(F)F)c3)nc21)c1cc[nH]n1 (stereo not shown) [Compound 229] |
| C (EC1.5>25 μM) |  | O=C(NC1CCCc2ccc(-c3cccc(C(F)(F)F)c3F)nc21)c1cnccn1 (stereo not shown) [Compound 256] |
| C (EC1.5>25 μM) |  | O=C(NC1CCCc2ccc(-c3cccnc3O)nc21)c1cnccn1 (stereo not shown) [Compound 257] |
| C (EC1.5>25 μM) |  | O=C(NC1CCCc2ccc(-c3cccnc3)nc21)c1cnccn1 (stereo not shown) [Compound 246] |

Continued, molecule first:

| SMILES | EC1.5 (concentration of test compound that results in 150% activation of SIRT1) | Emax [%] |
| --- | --- | --- |
| CC(NC(=O)c1cnccn1)c1cccc(-c2cccc(C(F)(F)F)c2)n1 (stereo not shown) [Compound 204, N-(1-(6-(3-(trifluoromethyl)phenyl)pyridin-2-yl)ethyl)pyrazine-2-carboxamide] | B (EC1.5 10-25 μM) | > 200 |
| O=C(NC1CCCc2ccc(-c3cccc(C(F)(F)F)c3)nc21)c1ccc(CN2CCOCC2)nc1 (stereo not shown) [Compound 241] | C (EC1.5>25 μM) |  |
| O=C(Nc1ccnc(N2CCCC2)c1)C1CCCc2ccc(-c3cccc(C(F)(F)F)c3F)nc21 (stereo not shown) [Compound 273] | C (EC1.5>25 μM) |  |
| O=C(Nc1ccccn1)C1CCCc2ccc(-c3cccc(C(F)(F)F)c3)nc21 (stereo not shown) [Compound 284] | C (EC1.5>25 μM) |  |
| O=C(Nc1cccnc1)C1CCCc2ccc(-c3cccc(C(F)(F)F)c3)nc21 (stereo not shown) [Compound 285] | C (EC1.5>25 μM) |  |
| CC(C)c1cccc(-c2cccc(C(C)NC(=O)c3cnccn3)n2)c1 (stereo not shown) [Compound 202] | C (EC1.5>25 μM) | < 200 |
| O=C(Nc1ccnc(N2CCCC2)c1)C1CCCc2ccc(-c3cccc(N4CCOCC4)c3)nc21 (stereo not shown) [Compound 278] | A (EC1.5<10.0 μM) | < 200 |
| CC(NC(=O)c1cnccn1)c1cccc(-c2ccccc2)n1 (stereo not shown) [Compound 211] | C (EC1.5>25 μM) |  |
| O=C(NC1CCCc2ccc(-c3cccc(C(F)(F)F)c3)nc21)c1cccc2c1OC(F)(F)O2 (stereo not shown) [Compound 226] | C (EC1.5>25 μM) |  |
| O=C(NC1CCCc2ccc(-c3cccc(C(F)(F)F)c3)nc21)c1cccc(C2CCNC2)c1 (stereo not shown) [Compound 242] | A (EC1.5<10.0 μM) | > 200 |
| O=C(Nc1ccncc1)C1CCCc2ccc(-c3cccc(C(F)(F)F)c3)nc21 (stereo not shown) [Compound 286] | C (EC1.5>25 μM) |  |
| Cc1cc(C(=O)NC2CCCc3ccc(-c4cccc(C(F)(F)F)c4)nc32)n(C)n1 (stereo not shown) [Compound 227] | A (EC1.5<10.0 μM) | > 200 |
| O=C(Nc1nccs1)C1CCCc2ccc(-c3cccc(C(F)(F)F)c3)nc21 (stereo not shown) [Compound 279] | C (EC1.5>25 μM) |  |
| O=C(NC1CCOCC1)C1CCCc2ccc(-c3cccc(C(F)(F)F)c3)nc21 (stereo not shown) [Compound 287] | C (EC1.5>25 μM) |  |
| CC(NC(=O)c1ccccc1)c1cccc(-c2ccccc2)n1 (stereo not shown) [Compound 217] | C (EC1.5>25 μM) |  |
| O=C(NC1CCCc2ccc(-c3ccc(N4CCCC4)cc3)nc21)c1cnccn1 (stereo not shown) [Compound 259] | C (EC1.5>25 μM) |  |
| CC(C(=O)Nc1nccs1)c1cccc(-c2cccc(C(F)(F)F)c2)n1 (stereo not shown) [Compound 221] | C (EC1.5>25 μM) |  |
| CC(NC(=O)c1cnccn1)c1cccc(-c2cccc(OC(F)(F)F)c2)n1 (stereo not shown) [Compound 207] | B (EC1.5 10-25 μM) | > 200 |
| O=C(Nc1nc2ccccc2s1)C1CCCc2ccc(-c3cccc(C(F)(F)F)c3)nc21 (stereo not shown) [Compound 295] | C (EC1.5>25 μM) |  |
| O=C(NC1CCOc2ccc(-c3cccc(C(F)(F)F)c3)nc21)c1cccc(N2CCOCC2)n1 (stereo not shown) [Compound 222, 6-morpholino-N-(6-(3-(trifluoromethyl)phenyl)-3,4-dihydro-2H-pyrano[3,2-b]pyridin-4-yl)picolinamide] | A (EC1.5<10.0 μM) | > 200 |
| CC(NC(=O)c1cccnc1)c1cccc(-c2cccc(C(F)(F)F)c2)n1 (stereo not shown) [Compound 216] | C (EC1.5>25 μM) |  |
| CC(NC(=O)c1cccc(CN2CCCC2)n1)c1cccc(-c2cccnc2)n1 (stereo not shown) [Compound 220] | C (EC1.5>25 μM) |  |
